This is an account of results in publication PMC6271520, “Isolation and Characterization of an α-Glucosidase Inhibitor from Musa spp. (Baxijiao) Flowers” (Molecules, 2014).

Read-outs that look alike come from different tables or passages of the source.

Assay [1] addresses T1, α-Glucosidase from Bacillus stearothermophilus (Geobacillus stearothermophilus, UniProt A0ACH1E9U3). Nature of the assay: α-glucosidase inhibitory activity assay (pNPG substrate, PNP release at 405 nm). In kind it is biochemical. To be noted: for IC50: pH 6.8, 37 °C, 2.5 mmol/L pNPG. Here is the method: Louis, MO, USA). […] All the reagents were of analytical grade. […] Then 0.5 mL of 2.5 mmol/L p-nitrophenyl-α-D-glucopyranoside as the substrate was added to the mixture to start the reaction. The reaction was incubated at 37 °C for 15 min and stopped by adding 1 mL 0.2 mol/L sodium carbonate solution. The α-glucosidase activity was determined by measuring the release of PNP at 405 nm. For the inhibitory activity assay, crude ethanol extracts were dissolved in 50% aqueous dimethyl sulfoxide, while the chloroform, ethyl acetate, and n-butanol fractions and puriﬁed compounds were dissolved in dimethyl sulfoxide. […] The inhibition of the test sample on α-glucosidase was calculated as follows: […] where Acontrol: Absorbance for 100% enzyme activity (+enzyme), Asample: Test sample (+enzyme + inhibitor) and Abackground: Inhibitor background absorbance (−enzyme + inhibitor).

The target in assay [2] is α-glucosidase. Also noted: method as in doi:10.1016/j.phytol.2013.08.005. To be noted: β-sitosterol isolated from Chrozophora plicata; cited from earlier work.
The target in assay [3] is T1, α-Glucosidase from Bacillus stearothermophilus. Description: Lineweaver–Burk plot analysis of inhibition kinetics of α-glucosidase. In kind it is biochemical. As to conditions: for mode of inhibition: Lineweaver–Burk plot, varying pNPG; for Ki: from Vmax at 12.5 and 50.0 mg/L (compound 5), 400 and 800 mg/L (compounds 3 and 4). The protocol: The mechanism of the binding of compounds 3, 4 and 5 to α-glucosidase was further studied.
The Ki value was calculated using the values of Vmax obtained at 12.5 and 50.0 mg/L for compound 5 and the values of Vmax obtained at 400 and 800 mg/L for compounds 3 and 4, respectively.
To determine the kinetic mode of inhibition of isolated α-glucosidase inhibitors, Lineweaver–Burk plot analysis was performed. This kinetics study was carried out in the presence and absence of inhibitors with varying concentrations of 4-NPGP as the substrate. The mode of inhibition of the test compounds was assessed on the basis of the inhibitory effects on Km (dissociation constant) and Vmax (maximum reaction velocity) of the enzyme determined using a Lineweaver-Burk plot, which is the double reciprocal plot of the enzyme reaction velocity (V) versus the substrate (p-nitrophenyl β-D-glucopyranoside, pNPG) concentration (1/V versus 1/[pNPG]).

Assay [4] deals with α-glucosidase. More on the design: method as in PMID 17270224. As to conditions: vanillic acid from stem bark of Fagara tessmannii; cited from earlier work.
The mark [5] stands for this setting: read-out: IC50 (mg/L) (converted).

T1 sequence (A0ACH1E9U3 entry or part of it): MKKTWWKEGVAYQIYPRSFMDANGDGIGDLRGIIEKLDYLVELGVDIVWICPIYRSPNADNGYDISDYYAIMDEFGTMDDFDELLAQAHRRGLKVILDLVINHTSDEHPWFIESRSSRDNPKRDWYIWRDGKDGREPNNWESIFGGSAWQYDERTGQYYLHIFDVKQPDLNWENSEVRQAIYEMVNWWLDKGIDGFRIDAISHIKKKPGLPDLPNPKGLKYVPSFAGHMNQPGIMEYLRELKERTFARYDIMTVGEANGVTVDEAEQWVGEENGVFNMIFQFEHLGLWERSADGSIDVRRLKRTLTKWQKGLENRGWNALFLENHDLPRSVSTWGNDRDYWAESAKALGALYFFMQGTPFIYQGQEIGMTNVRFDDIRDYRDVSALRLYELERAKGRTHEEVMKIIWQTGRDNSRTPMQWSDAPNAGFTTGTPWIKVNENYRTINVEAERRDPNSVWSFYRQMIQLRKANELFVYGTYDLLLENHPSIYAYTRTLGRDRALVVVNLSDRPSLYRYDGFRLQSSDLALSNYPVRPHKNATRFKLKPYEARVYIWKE

On to `COc1cc(/C=C/C(=O)O)ccc1O` [Compound 2, Ferulic acid], for which, in assay [1] (read-out: IC50 (mg/L)), the IC50 was 6480 µM.
Regarding `CC[C@H](CC[C@@H](C)[C@H]1CC[C@H]2[C@@H]3CC=C4C[C@@H](O)CC[C@]4(C)[C@H]3CC[C@]12C)C(C)C` [Compound 3, β-Sitosterol], the figures for the IC50 (at α-glucosidase [2]; in assay [1] (read-out: IC50 (mg/L))) were 287.1 ± 0.75 µM and 684 µM, respectively. Further, the mode of inhibition entry in assay [3] is on record as “competitive inhibitors”. For the same molecule, the inhibitory constant (Ki) in assay [3] (read-out: inhibition constant (Ki)) was 48.4 µM.
Regarding `C[C@H]1O[C@H](O[C@H]2[C@H](O)[C@@H](O)[C@@H](O[C@H]3[C@H](O)[C@@H](O)C(O)O[C@@H]3CO)O[C@@H]2CO)[C@H](O)[C@@H](O)[C@@H]1N[C@H]1C=C(CO)[C@@H](O)[C@H](O)[C@H]1O` (stereo partly drawn) [Acarbose, reference compound], the inhibition at 1500 µg/mL in assay [1] (at 1.5 mg/mL, read-out: percent inhibition against α-glucosidase) was found to be 56.4%. The IC50 in assay [1] (setting [5]) is 1550 µM.
Take `CC[C@H](CC[C@@H](C)[C@H]1CC[C@H]2[C@@H]3CC=C4C[C@@H](O[C@@H]5O[C@H](CO)[C@@H](O)[C@H](O)[C@H]5O)CC[C@]4(C)[C@H]3CC[C@]12C)C(C)C` [Compound 4, Daucosterol]: the IC50 in assay [1] (setting [5]) is 429 µM. Further, in assay [3], the mode of inhibition entry is given as “competitive inhibitors”. Besides, in assay [3] (read-out: inhibition constant (Ki) (converted)), the Ki is 4.06 µM.
On to `COc1cc(C(=O)O)ccc1O` [Compound 1, Vanillic acid], for which the IC50 in assay [1] (read-out: IC50 (mg/L)) was 11900 µM; at α-glucosidase [4] it was 69.4 ± 0.8 µM.

As a reminder, the Ki is a measure of affinity in units of concentration, obtained from inhibition or displacement. Usually inhibition stands for how much of the control response was suppressed.
